Measurements published in patent US20050222218A1, “Screening method and compounds for treating friedreich ataxia” (priority 2002, published 2005).
“Also recorded” adds a separate entry of the source. Like-named read-outs stand apart in the source and are kept apart here.

What was measured:
Type in all cases: cell-based, human
[1] = tested on: control fibroblasts; test: BSO sensitivity of control fibroblasts (cell viability)
Protocol: (§1) Friedreich Ataxia primary culture fibroblast cell lines F1 and control fibroblast line C1 were provided by the Insel-Spital Bern (Switzerland), FRDA line F3 was provided by Hopital Necker, Paris (France), FRDA lines F2 and control lines C2 and C3 were obtained from Coriell Cell Repositories (Camden, N.J.; catalog numbers GM04078, GM08402 and GM08399 respectively). Cells were grown in a humidified atmosphere supplemented with 5% CO2. […]
(§2) The cells were seeded in 96-well plates at a density of 4000 cells/well. […] Cell viability was measured when the first signs of toxicity appeared in the controls (typically after 12 to 48 h). […] The plates were washed twice with PBS and fluorescence intensity was measured with a Gemini Spectramax XS spectrofluorimeter (Molecular Devices, Sunnyvale, Calif.) using excitation and emission wavelengths of 485 nm and 525 nm respectively. Live cells imaging was performed with a Zeiss Axiovert 135M fluorescence microscope equipped with a cooled CCD camera (Sensicam, PCO Computer Optics, Kelheim, FRG). […]

[2] = tested on: intracellular GSH in control and FRDA cells; test: Intracellular glutathione content (monochlorobimane method)
Protocol: (§3) Control and FRDA cells (5×10^5 cells grown in 10 cm dishes) were preincubated with sodium selenite (500 nM) for 24 hours and then subjected to 1 mM BSO treatment for 24 hours. Total cell extracts were used to measure glutathione content, glutathione peroxidase activity and glutathione-S-transferase activity.
To determine the glutathione content, cells were trypsinized, washed twice with PBS and snap frozen in 100 μl PBS. Cells were lysed in PBS supplemented with a protease inhibitor cocktail (Complete, Roche Diagnostics, Rotkreuz, Switzerland) by 4 freeze/thaw cycles. Total protein content was measured with the BioRad protein assay (BioRad, Hercules, Calif.) using calibrated bovine serum albumin solutions as standards (Pierce). Reduced glutathione content was measured essentially as described (Kamencic, H., et al., Monochlorobimane fluorometric method to measure tissue glutathione, Anal Biochem, 286, 35-7., (2000)) with a final monochlorobimane (mClB) (Molecular Probes, Eugene, Oreg.) concentration of 25 μM. The GSH-mClB adduct fluorescence was measured with a Gemini spectrofluorimeter using excitation and emission wavelengths of 380 nm and 470 nm respectively. Known amounts of reduced glutathione were used as standards.

[3] = tested on: GPX enzymatic activity in control cells; test: Glutathione peroxidase activity in control cell extracts
Protocol: as §3
(§4) To determine the glutathione peroxidase activity, cell extracts obtained for total GSH measurements were adjusted with PBS to a final protein concentration of 1.85 mg/ml. Enzymatic activity was measured with the Glutathione peroxidase cellular activity assay kit (Sigma, St Louis, Mo.) essentially according to the instructions of the manufacturer: Enzymatic activity was measured with 40 μg total protein extract in a final reaction volume of 100 μl. NADPH consumption was measured by the decrease in NADPH fluorescence at 445 nm. All measurements were done in triplicate in 96-well plates with a Gemini spectrofluorimeter using excitation and emission wavelengths of 340 nm and 445 nm respectively. Glutathione-S-transferase activity was determined in the same way as the glutathione content, except that the assay was performed in the presence of an excess of glutathione (1 mM) instead of an excess of exogenous glutathione-S-transferase. Because the BSO treatment is known to deplete cellular (GSH) levels, intracellular GSH concentrations were measured first. Any difference in basal glutathione levels between the two cell lines that were tested were not observed (FIG. 4, panel A). […] (FIG. 4, panel A). From this, it was concluded that the GSH levels per se are not responsible for the observed difference in phenotype between the two cell types. […] Therefore, GPX enzymatic activity in extracts from both cell types was compared. This measurement is based on the recycling of oxidized glutathione generated by GPX, using tert-butyl hydroperoxide as substrate. Oxidized glutathione is reduced by an excess exogenous glutathione reductase that will consume a corresponding amount of NADPH that is then measured by fluorescence. […]

[4] = tested on: GST activity in control cells; test: Glutathione-S-transferase activity in control cell extracts; conditions: 500 nM sodium selenite or 1 mM BSO
Protocol: as §3
(§5) To determine the glutathione peroxidase activity, cell extracts obtained for total GSH measurements were adjusted with PBS to a final protein concentration of 1.85 mg/ml. Enzymatic activity was measured with the Glutathione peroxidase cellular activity assay kit (Sigma, St Louis, Mo.) essentially according to the instructions of the manufacturer: Enzymatic activity was measured with 40 μg total protein extract in a final reaction volume of 100 μl. NADPH consumption was measured by the decrease in NADPH fluorescence at 445 nm. […] Glutathione-S-transferase activity was determined in the same way as the glutathione content, except that the assay was performed in the presence of an excess of glutathione (1 mM) instead of an excess of exogenous glutathione-S-transferase. Because the BSO treatment is known to deplete cellular (GSH) levels, intracellular GSH concentrations were measured first. […] Oxidized glutathione is reduced by an excess exogenous glutathione reductase that will consume a corresponding amount of NADPH that is then measured by fluorescence. […]

[5] = tested on: FRDA fibroblasts; test: BSO sensitivity of FRDA fibroblasts (cell viability)
Protocol: as §1, §2

[6] = tested on: GPX enzymatic activity in FRDA cells; test: Glutathione peroxidase activity in FRDA cell extracts
Protocol: as §3, §4

[7] = tested on: FRDA fibroblasts; test: Rescue of FRDA fibroblasts from BSO-induced cell death (CalceinAM/ethidium homodimer cell viability)
Protocol: Friedreich Ataxia primary culture fibroblast cell lines F1 and control fibroblast line C1 were provided by the Insel-Spital Bern (Switzerland), FRDA line F3 was provided by Hopital Necker, Paris (France), FRDA lines F2 and control lines C2 and C3 were obtained from Coriell Cell Repositories (Camden, N.J.; catalog numbers GM04078, GM08402 and GM08399 respectively). Cells were grown in a humidified atmosphere supplemented with 5% CO2. For experiments, the cells were trypsinized and resuspended at a density of 40000 cells/ml in growth medium consisting of 25% (v/v) M199 EBS and 64% (v/v) MEM EBS without phenol red (Bioconcept, Allschwil, Switzerland) supplemented with 10% (v/v) fetal calf serum (PAA Laboratories, Linz, Austria), 100 U/ml penicillin, 100 μg/ml streptomycin (PAA Laboratories, Linz, Austria), 10 μg/ml insulin (Sigma, Buchs, Switzerland), 10 ng/ml EGF (Sigma, Buchs, Switzerland) and 10 ng/ml bFGF (PreproTech, Rocky Hill, N.J.) and 2 mM glutamine (Sigma, Buchs, Switzerland).
The cells were seeded in 96-well plates at a density of 4000 cells/well. They were incubated in the presence of various concentrations of L-buthionine-(S,R)-sulfoximine (BSO), an inhibitor of γ-glutamyl cysteine synthase (EC: 6.3.2.2), the rate limiting enzyme in the biosynthesis of glutathione. Cell viability was measured when the first signs of toxicity appeared in the controls (typically after 12 to 48 h). The cells were stained for 60 min at room temperature in PBS with 1.2 μM CalceinAM and 4 μM Ethidium homodimer (Live/Dead assay, Molecular Probes, Eugene, Oreg.). The plates were washed twice with PBS and fluorescence intensity was measured with a Gemini Spectramax XS spectrofluorimeter (Molecular Devices, Sunnyvale, Calif.) using excitation and emission wavelengths of 485 nm and 525 nm respectively. Live cells imaging was performed with a Zeiss Axiovert 135M fluorescence microscope equipped with a cooled CCD camera (Sensicam, PCO Computer Optics, Kelheim, FRG). Image acquisition was performed with the ImagePro Plus software (Media Cybermetics, Silver Spring, Md.).
[…] Cell viability was measured as described in Example 2.
Cell viability was measured after a further 48 hours incubation as described in Example 2. EC50 values were deduced from the dose-response curves. The natural CoQ10 was not active in this assay (Table 1). However, a possible bioavailability problem with this molecule due to its 50 carbon atom side chain can not be ruled out. CoQ1 had EC50 values similar to Idebenone (0.2 μM). CoQ2 performed better than Idebenone, with an EC50 value of 30 nM. […] Decylubiquinone was almost as effective as CoQ2, with an EC50 of 40 nM.
FRDA cells were incubated with increasing concentrations of sodium selenite (prepared as a stock solution 5 mM in PBS) for 24 hours, then subjected to BSO stress. Cell viability was measured as described in Example 2.
Based on the previous results, the hypothesis whether small-molecules GPX mimetics could rescue the cell death phenotype of FRDA cells when exposed to BSO was tested. FRDA cells were incubated for 24 hours in the presence of Ebselen, a GPX mimetic (Muller, A., et al., “A novel biologically active seleno-organic compound—I. Glutathione peroxidase-like activity in vitro and antioxidant capacity of PZ 51 (Ebselen)”, Biochem Pharmacol, 33, 3235-9., (1984)) and then subjected to 1 mM BSO treatment.
FRDA cells were incubated in the presence of a number of GPX mimetics. Two classes of molecules (FIG. 7) were evaluated: monoselenides (compound number 4, 5 and 8) and diselenides (compound number 1-3, 6, 7, 9-16). Dose-response curves were obtained for each molecule. From the dose-response curves not only the EC50, but also the concentration range for which a molecule produced at least 50% cell survival upon BSO challenge was calculated (FIG. 8).
GPX mimetics were tested as described in Example 3. Dose-response curves were obtained for all compounds tested. […]

[8] = tested on: FRDA fibroblasts; test: as above; conditions: no preincubation
[9] = tested on: GST activity in FRDA cells; test: Glutathione-S-transferase activity in FRDA cell extracts; conditions: 500 nM sodium selenite
Protocol: as §3, §5

[10] = Homo sapiens, Fibroblast, Table 1, 24 h preincubation, 1 mM BSO, viability after further 48 h, read-out: EC50
[11] = 500 nM sodium selenite, then 1 mM BSO
[12] = FRDA cells preincubated 24 h with compound, then 1 mM BSO, read-out: EC50 value, prevention of cell death

Compound: CCCCS(=N)(=O)CCC(N)C(=O)O [BSO, L-buthionine-(S,R)-sulfoximine]
- viability compared to untreated controls (average) ([1]; 1 mM BSO, control cell lines C1-C3): 60%
- BSO concentration giving slight decrease in cell density ([1]; overnight exposure): 100 µM
- effect of BSO on glutathione levels ([2]; 1 mM BSO 24 h, both cell types): reduction in glutathione levels
- effect of BSO on GPX enzyme activity ([3]; 1 mM BSO 24 h, no selenium): small decrease in enzyme activity
- effect on GST activity [4]: neither modulated
- viability compared to untreated controls ([5]; 1 mM BSO, FRDA cell lines F1-F3): less than 10%
- BSO concentration giving marked reduction in cell titer ([5]; overnight exposure): 4 µM
- effect of BSO on GPX enzyme activity ([6]; 1 mM BSO 24 h, no selenium): small decrease in enzyme activity

Compound: COC1=C(OC)C(=O)C(C)=CC1=O [CoQ0]
- activity in rescuing FRDA cells from BSO (in words) ([7]; 24 h preincubation, 1 mM BSO): inactive; also recorded: not active

Compound: COC1=C(OC)C(=O)C(C/C=C(\C)CCC=C(C)C)=C(C)C1=O [CoQ2]
- EC50 ([7]; FRDA cells preincubated 24 h with compound, then 1 mM BSO, viability after further 48 h, read-out: EC50 value, rescue of FRDA cell death): 30 nM

Compound: COC1=C(OC)C(=O)C(C/C=C(\C)CC/C=C(\C)CC/C=C(\C)CC/C=C(\C)CC/C=C(\C)CC/C=C(\C)CC/C=C(\C)CC/C=C(\C)CC/C=C(\C)CCC=C(C)C)=C(C)C1=O [CoQ10]
- activity in rescuing FRDA cells from BSO (in words) ([7]; 24 h preincubation, 1 mM BSO): not active; also recorded: did not reach the 50% cell viability rescue
- EC50 ([7]; Table 1, 24 h preincubation, 1 mM BSO, viability after further 48 h, read-out: EC50): > 50000 nM

Compound: CCCCCCCCCCC1=C(C)C(=O)C(OC)=C(OC)C1=O [Decylubiquinone, 2,3-Dimethoxy-5-methyl-6-decyl-1,4-benzoquinone]
- working range (concentrations giving at least 50% cell viability) ([7]; 1 mM BSO): up to 3 orders of magnitude
- EC50 ([7]; Homo sapiens, Fibroblast, FRDA cells preincubated 24 h with compound, then 1 mM BSO, viability after further 48 h, read-out: EC50 value, rescue of FRDA cell death): 40 nM
- EC50 [7, 10]: 40 nM

Compound: COC1=C(OC)C(=O)C(CCCCCCCCCCO)=C(C)C1=O [Idebenone, 2,3-dimethoxy-5-methyl-6(10-hydroxydecyl)-1,4-benzoquinone]
- rescue effect at the highest concentration tested ([7]; 50 μM compound, 1 mM BSO): slightly diminished
- appearance of treated cells upon microscopic examination ([7]; 1 mM BSO + 5 μM Idebenone, CalceinAM/ethidium homodimer): undistinguishable from untreated cells
- concentration at which full rescue was observed ([7]; 24 h preincubation, 1 mM BSO): 2 µM
- EC50 ([7]; Homo sapiens, Fibroblast, FRDA cells preincubated 24 h with compound, then 1 mM BSO, read-out: EC50 value, prevention of cell death): 500 nM
- EC50 [7, 10]: 500 nM

Compound: Cc1c(C)c2c(c(C)c1O)CCC(C)(C(=O)O)O2 (stereo not shown) [Trolox, 6-hydroxy-2,5,7,8-tetramethylchroman-2-carboxylic acid]
- viability at 25 µM ([7]; Homo sapiens, Fibroblast, read-out: cell viability preserved): 60%
- cell viability ([7]; concentrations higher than 25 μM, 1 mM BSO): 55%

Compound: O=[Se]([O-])[O-].[Na+].[Na+] [sodium selenite]
- effect of selenium preincubation on BSO glutathione depletion ([2]; 500 nM sodium selenite 24 h, then 1 mM BSO 24 h): did not prevent the glutathione depletion
- effect on basal GPX activity ([3]; 500 nM sodium selenite, no BSO): not enhanced
- effect on GPX activity under BSO treatment [3, 11]: prevented the enzyme activity loss
- effect on GST activity [4]: neither modulated
- protection when added at the same time as BSO [8]: did not protect
- concentration that protected the cells fully ([7]; 24 h preincubation, then BSO): 200 nM
- effect of concentrations higher than 200 nM ([7]; 24 h preincubation, then BSO): enhanced cell growth
- effect on GST activity [9]: slightly reduces
- increase in basal GPX enzyme activity ([6]; 500 nM sodium selenite, no BSO): 50%
- factor of increase in GPX activity [6, 11]: 3

Compound: CoQ1
- EC50 [7, 12]: 200 nM

Compound: Vitamin E
- EC50 [7, 12]: 700 nM
